Legend:
[1] = xn = mol fraction of the nth substance listed; settings: 101.3 kPa, Liquid
[2] = 101.3 kPa, Liquid

CCC(C)O (configuration not stated) [butan-2-ol] + CC1CCCO1
[1], x1 = 1
Settings | kinematic viscosity [m2/s] | mass density [kg/m3]
298.15 K | 3.73e-06 | 802.25
313.15 K | 2.24e-06 | 789.44

CC(C)(C)Cl [2-chloro-2-methylpropane] + CC1CCCO1
[1], 298.15 K
Settings | kinematic viscosity [m2/s] | mass density [kg/m3]
x1 = 0.0481 | 5.59e-07 | 849.09
x1 = 0.0972 | 5.57e-07 | 848.97
x1 = 0.196 | 5.55e-07 | 848.4
x1 = 0.2907 | 5.55e-07 | 847.61
x1 = 0.3874 | 5.54e-07 | 846.54
x1 = 0.4878 | 5.54e-07 | 845.21
x1 = 0.5888 | 5.55e-07 | 843.72
x1 = 0.7 | 5.57e-07 | 842.04
x1 = 0.7912 | 5.59e-07 | 840.61
x1 = 0.8945 | 5.62e-07 | 838.65
x1 = 0.9474 | 5.63e-07 | 837.24
x1 = 1 | 5.66e-07 | 835.75

CC1CCCO1 (configuration not stated) [2-methyltetrahydrofuran] + CCCCO
[1]
Settings | kinematic viscosity, 298.15 K [m2/s] | kinematic viscosity, 313.15 K [m2/s] | mass density, 298.15 K [kg/m3] | mass density, 313.15 K [kg/m3]
x2 = 0 | 5.59e-07 | 4.92e-07 | 849.28 | 834.01
x2 = 0.0488 | 5.91e-07 | 5.11e-07 | 847.62 | 832.35
x2 = 0.1039 | 6.22e-07 | 5.35e-07 | 845.56 | 830.5
x2 = 0.205 | 6.93e-07 | 5.88e-07 | 841.78 | 827.07
x2 = 0.3006 | 7.7e-07 | 6.52e-07 | 838.03 | 823.64
x2 = 0.4051 | 8.81e-07 | 7.34e-07 | 833.86 | 820
x2 = 0.5099 | 1.05e-06 | 8.41e-07 | 829.37 | 815.98
x2 = 0.6036 | 1.21e-06 | 9.69e-07 | 825.28 | 812.07
x2 = 0.7034 | 1.47e-06 | 1.16e-06 | 820.68 | 807.96
x2 = 0.8042 | 1.84e-06 | 1.39e-06 | 815.8 | 803.45
x2 = 0.906 | 2.4e-06 | 1.76e-06 | 810.56 | 798.76
x2 = 0.9582 | 2.8e-06 | 1.99e-06 | 807.81 | 796.23

CC(C)CO [2-methyl-1-propanol] + CC1CCCO1
[1], x1 = 1
Settings | kinematic viscosity [m2/s] | mass density [kg/m3]
298.15 K | 4.25e-06 | 797.71
313.15 K | 2.74e-06 | 785.89

CCC(C)Cl (configuration not stated) [2-chlorobutane]
[2]
Settings | kinematic viscosity [m2/s] | mass density [kg/m3]
298.15 K | 4.54e-07 | 867.31
313.15 K | 3.97e-07 | 850.23

CC1CCCO1 (configuration not stated) [2-methyltetrahydrofuran] + CC(C)CO
[1]
Settings | kinematic viscosity, 298.15 K [m2/s] | kinematic viscosity, 313.15 K [m2/s] | mass density, 298.15 K [kg/m3] | mass density, 313.15 K [kg/m3]
x2 = 0 | 5.59e-07 | 4.92e-07 | 849.28 | 834.01
x2 = 0.0397 | 5.85e-07 | 5.06e-07 | 847.52 | 832.15
x2 = 0.0951 | 6.17e-07 | 5.31e-07 | 844.97 | 829.82
x2 = 0.1999 | 6.87e-07 | 5.88e-07 | 840.08 | 825.25
x2 = 0.3008 | 7.77e-07 | 6.54e-07 | 835.46 | 820.88
x2 = 0.3982 | 8.96e-07 | 7.47e-07 | 830.71 | 816.54
x2 = 0.4988 | 1.04e-06 | 8.47e-07 | 825.72 | 811.84
x2 = 0.5992 | 1.26e-06 | 9.96e-07 | 820.51 | 807.01
x2 = 0.7013 | 1.58e-06 | 1.22e-06 | 815.04 | 801.97
x2 = 0.7995 | 2.06e-06 | 1.51e-06 | 809.54 | 796.99
x2 = 0.9048 | 2.93e-06 | 2.02e-06 | 803.45 | 791.39
x2 = 0.9557 | 3.55e-06 | 2.36e-06 | 800.39 | 788.49

CC1CCCO1 (configuration not stated) [2-methyltetrahydrofuran] + CCC(C)Cl
[1], x2 = 0
Settings | kinematic viscosity [m2/s] | mass density [kg/m3]
298.15 K | 5.59e-07 | 849.28
313.15 K | 4.92e-07 | 834.01

CC(C)(C)O [2-methylpropan-2-ol] + CC1CCCO1
[1], x1 = 1
Settings | kinematic viscosity [m2/s] | mass density [kg/m3]
298.15 K | 5.59e-06 | 780.67
313.15 K | 2.74e-06 | 765.33

CC(C)(C)O [2-methylpropan-2-ol]
[2]
Settings | kinematic viscosity [m2/s] | mass density [kg/m3]
298.15 K | 5.59e-06 | 780.67
313.15 K | 2.74e-06 | 765.33

CCCCCl [1-chlorobutane] + CC1CCCO1
[1], x1 = 1
Settings | kinematic viscosity [m2/s] | mass density [kg/m3]
298.15 K | 4.78e-07 | 880.62
313.15 K | 4.21e-07 | 863.86

CC1CCCO1 (configuration not stated) [2-methyltetrahydrofuran] + CC(C)(C)Cl
[1], 298.15 K, x2 = 0
Settings | kinematic viscosity [m2/s] | mass density [kg/m3]
– | 5.59e-07 | 849.28

CC(C)CCl [1-chloro-2-methylpropane] + CC1CCCO1
[1]
Settings | kinematic viscosity, 298.15 K [m2/s] | kinematic viscosity, 313.15 K [m2/s] | mass density, 298.15 K [kg/m3] | mass density, 313.15 K [kg/m3]
x1 = 0.0484 | 5.56e-07 | 4.88e-07 | 850.43 | 834.97
x1 = 0.0999 | 5.52e-07 | 4.85e-07 | 852.07 | 836.22
x1 = 0.1962 | 5.44e-07 | 4.78e-07 | 854.44 | 838.53
x1 = 0.3105 | 5.35e-07 | 4.7e-07 | 857.3 | 841.23
x1 = 0.4006 | 5.29e-07 | 4.65e-07 | 859.25 | 843.09
x1 = 0.4775 | 5.23e-07 | 4.6e-07 | 860.99 | 844.5
x1 = 0.6006 | 5.15e-07 | 4.52e-07 | 863.58 | 846.94
x1 = 0.7031 | 5.08e-07 | 4.46e-07 | 865.6 | 848.88
x1 = 0.8026 | 5.03e-07 | 4.4e-07 | 867.49 | 850.49
x1 = 0.9059 | 4.97e-07 | 4.34e-07 | 869.22 | 852.11
x1 = 0.9506 | 4.95e-07 | 4.32e-07 | 870.2 | 852.87
x1 = 1 | 4.92e-07 | 4.29e-07 | 870.93 | 853.51

CC(C)(C)Cl [2-chloro-2-methylpropane]
[2], 298.15 K
Settings | kinematic viscosity [m2/s] | mass density [kg/m3]
– | 5.66e-07 | 835.75

CCCCCl [1-chlorobutane]
[2]
Settings | kinematic viscosity [m2/s] | mass density [kg/m3]
298.15 K | 4.78e-07 | 880.62
313.15 K | 4.21e-07 | 863.86

CC1CCCO1 (configuration not stated) [2-methyltetrahydrofuran]
[2]
Settings | kinematic viscosity [m2/s] | mass density [kg/m3]
298.15 K | 5.59e-07 | 849.28
313.15 K | 4.92e-07 | 834.01

CCCCO [butan-1-ol] + CC1CCCO1
[1], x1 = 1
Settings | kinematic viscosity [m2/s] | mass density [kg/m3]
298.15 K | 3.19e-06 | 805.56
313.15 K | 2.22e-06 | 794.19

Source: the NIST ThermoML archive (doi:10.1021/je030167i)
